“And” between values parts separate entries of the source, which are not always exact repeats. Equal entries are not always repeated. Where two headings read alike, the source gives them in different places.
Legend:
[1] = oral administration, in comparison to subcutaneous administration; cited from earlier work
[2] = pulmonary route, cited from earlier work
MC3T3-E1 cells = assay: Bioactivity of released PTH(1-34): intracellular cAMP; format: cell-based; conditions: PTH(1-34) released from microspheres at 1 and 3 days; 6 hrs incubation
Description: Activity of controlled released PTH(1-34) was determined by measuring cAMP contents in cells treated with released PTH(1-34). For these experiments, the MC3T3-E1 was cultured in α-MEM supplemented with 10% fetal bovine serum and […] ascorbic acid. The cells were seeded onto 24-well plates at a density of 50,000 cells/well. After 6 hrs of incubation with released PTH (1-34) from microspheres, the cells were lysed directly in the medium by adding 0.1 N HCl and 0.5 mM isobutylmethylxanthine to protect the produced cAMP. Intracellular cAMP was measured using a commercially available ELISA kit (Endogen/Pierce, Rockford, Ill.) following the manufacturer's instructions.

[3] = tested on: papain-induced osteoarthritis, articular cartilage; assay: Papain-induced osteoarthritis, histology and immunohistochemistry of articular cartilage; format: in vivo, rat
Description: The animal experiments were approved by the Animal Care and Use Committee of Kaohsiung Medical University. Fifty-four 12-week-old male Sprague-Dawley rats (250-300 gm) were purchased from BioLASCO Taiwan and housed under standard laboratory conditions (temperature 24° C., 12-hour light-dark cycle) with food and water ad libitum. The animals were acclimatized to the laboratory environment for 1 week before the experiments.
Each left knee, which served as the contralateral control joint, received the vehicle without PTH treatment or OA-induction. The right knees were the study joints. Rats were divided into five groups: Non-OA+PTH [PTH(1-34) treatment without OA-induction] (n=6), Non-OA+PTH/PLGA [PTH/PLGA microspheres treatment without OA-induction] (n=6), OA [OA-induction without PTH(1-34) treatment] (n=6), OA+PTH [PTH(1-34) treatment followed by OA-induction] (n=6), and OA+PTH/PLGA [PTH/PLGA microspheres treatment followed by OA-induction] (n=6). OA was induced in the right knees of rats in the OA and OA+PTH groups with intra-articular injections of 20 μl of 4% papain solution and 20 μl of 0.03 M cystein. The injections were given with a 26-gauge needle via the patellar tendon on days 1, 4, and 7 of the experiment (13). In the OA+PTH group, after OA-induction, the right knees were injected intra-articularly with 40 μl of 10 nM PTH(1-34) every three days until sacrifice. In the PTH group, the same PTH(1-34) treatment was performed but without OA-induction. In the OA+PTH/PLGA group, after OA-induction, the right knees were injected intra-articularly with 0.4 mg of PTH/PLGA microspheres at 1st and 15th day. The rats were sacrificed with an overdose of CO2-inhaled at the same time point at 5 weeks.
After sacrifice, the knees of each rat were harvested, and the tibia plateaus with articular cartilage were collected and fixed with 10% neutral buffered formalin prior to histological preparation. The samples were then decalcified in 10% formic acid/PBS. The decalcified tibia articular samples were paraffin embedded, and 5 μm microsections in the coronary plane were prepared. GAG was stained with Safranin-O-Fast-Green (1% Safranin-O counter-stained with 0.75% hematoxylin and then 1% fast green) (Sigma, St. Louis, Mo.). Localized type II Collagen and type X collagen were immuno-stained.
GAG was stained red by Safarinin-O, and the total and red-stained areas in the articular cartilage of each proximal tibia were measured using the Image-Pro plus 5.0 software (FIG. 6C) (Media Cybernetics Inc. MD, USA). The ratio of red stained area to total area (red/total) in each group was calculated.
The tibia articular sections were re-hydrated, and the endogenous peroxidase in tissues was blocked with 3% hydrogen peroxide. Samples were digested by enzymes for epitope retrieval before incubation with primary antibodies. The method for enzyme digestion was modified from a previous report (20). The optimal condition for the enzyme digestion for type II collagen immuno-staining was a mixture of 2.5% hyluronidase and 1 mg/ml pronase in PBS (pH 7.4) (Sigma, St. Louis, Mo.) at 37° C. for 1 hour. For type X collagen immuno-staining the optimal condition was 0.1 U/ml chondroitinase ABC (Sigma, St. Louis, Mo.) for 1 hour and pepsin 1 mg/ml in tris-HCl (pH 3.0) at 37° C. for 15 minutes. […]

[4] = tested on: papain induced osteoarthritis; conditions: injection once in three days for 5 weeks; cited from earlier work
[5] = Non-OA study joints (no OA-induction)
[6] = OA-induced study joints, intra-articular, 5 weeks

For CC[C@H](C)[C@H](NC(=O)[C@H](CCC(=O)O)NC(=O)[C@H](CO)NC(=O)[C@@H](NC(=O)[C@@H](N)CO)C(C)C)C(=O)N[C@@H](CCC(N)=O)C(=O)N[C@@H](CC(C)C)C(=O)N[C@@H](CCSC)C(=O)N[C@@H](Cc1cnc[nH]1)C(=O)N[C@@H](CC(N)=O)C(=O)N[C@@H](CC(C)C)C(=O)NCC(=O)N[C@@H](CCCCN)C(=O)N[C@@H](Cc1cnc[nH]1)C(=O)N[C@@H](CC(C)C)C(=O)N[C@@H](CC(N)=O)C(=O)N[C@@H](CO)C(=O)N[C@@H](CCSC)C(=O)N[C@@H](CCC(=O)O)C(=O)N[C@@H](CCCN=C(N)N)C(=O)N[C@H](C(=O)N[C@@H](CCC(=O)O)C(=O)N[C@@H](Cc1c[nH]c2ccccc12)C(=O)N[C@@H](CC(C)C)C(=O)N[C@@H](CCCN=C(N)N)C(=O)N[C@@H](CCCCN)C(=O)N[C@@H](CCCCN)C(=O)N[C@@H](CC(C)C)C(=O)N[C@@H](CCC(N)=O)C(=O)N[C@@H](CC(=O)O)C(=O)N[C@H](C(=O)N[C@@H](Cc1cnc[nH]1)C(=O)N[C@@H](CC(N)=O)C(=O)N[C@@H](Cc1ccccc1)C(=O)O)C(C)C)C(C)C [PTH(1-34)], the bioavailability [1] is given as 5% and 2.1%, the bioavailability ([2]; inhalation of dry powders) is given as 34% and the bioavailability ([2]; intratracheal instillation) is given as 40%. The cAMP production (MC3T3-E1 cells) was “increased production of cAMP”, the “Safranin O-stained area to total area (red:total, GAG) vs contralateral control” value [3, 5] was “not significantly different” and the “type II collagen stained area to total area vs contralateral control” value [3, 5] was “not significantly different”. For the same compound, the “type X collagen-stained chondrocytes vs OA group” value ([3]; OA-induced study joints, after 5 weeks of treatment) was “less positive stained cells”, the “Safranin O-stained area to total area (red:total, GAG) vs contralateral control” value [3, 6] was “not significantly different from the contralateral control cartilage” and the “type II collagen stained area to total area (brown:total) vs contralateral control” value [3, 6] was “not significantly different from the contralateral control cartilage”. For the same compound, the effective dose [4] was 10^−8 M.
